Data set [1] deals with Aichi H3N2 virus (X31) mediated hemagglutination of human erythrocytes. It is filed as cell-based, influenza A virus A/Aichi/2/1968 H3N2 (X31).
Data set [2] has as its system Rostock H7N1 virus mediated hemagglutination of turkey erythrocytes. It is filed as cell-based, influenza A virus A/FPV/Rostock/34 H7N1.
For data set [3], the system named is human erythrocytes. It is filed as cell-based.
The subject of data set [4] is infection of MDCK II cells by Aichi H3N2. It is filed as cell-based, influenza A virus A/Aichi/2/1968 H3N2 (X31).
In data set [5] the test system is infection of MDCK II cells by Rostock H7N1. The data set is classed as cell-based, influenza A virus A/FPV/Rostock/34 H7N1.
Data set [6] is classed as physicochemical. The following applies: for hydrodynamic diameter (DLS): Zetasizer Nano ZS, back scattering 173°.
The format of data set [7] is physicochemical. To be noted: 2 mM in PBS, negative staining with 1% phosphotungstic acid pH 7.4; cryo-TEM gave the same results.
The test system of another data set is Aichi H3N2. To be noted: at higher viral titer than used in this paper; ref [14]; read-out: IC50 against Aichi H3N2 in the HAI; cited from earlier work. How it is done:
The potential to inhibit binding of influenza viruses to cells can be investigated by the well-established hemagglutination inhibition assay (HAI). All peptides, but the control peptide C18-rs2s were able to inhibit Aichi H3N2 virus mediated hemagglutination already at low micromolar concentrations (Table 2). For EB an IC50 of 20 µM against Aichi H3N2 in the HAI has been determined, however at higher viral titer than we used.

The test system of a further data set is Hongkong H5N1. The following applies: read-out: IC50 against Hongkong H5N1; cited from earlier work.
Data set [8] has as its system human erythrocytes. As to the kind of experiment: Hemolysis assay. The data set is classed as cell-based. The following applies: 2% human erythrocytes, 1 h at 37 °C, absorption of the supernatant at 540 nm; titration, three experiments; for C18-s2s above concentrations of 20 µM. The procedure:
To assess how strong membrane incorporation of these peptides can perturb membranes we measured their cell lytic activity in a titration experiment with human erythrocytes. […] For EB the same has been reported by Jones et al..
Figure 7 Hemolytic activity of stearylated peptides and EB. 2% human erythrocytes were incubated for one hour with peptides at 37 °C. After centrifugation, the hemolytic activity was assessed by absorption measurement of the supernatant at 540 nm. Error bars indicate the SEM of three titration experiments.
Peptide inhibitors were serially diluted in PBS, mixed with a 2% human erythrocyte solution, and incubated for 1 h at 37 °C. Afterwards, the mix was centrifuged for 10 min at 1500 x g.
Supernatants were measured for absorption at 540 nm representative for hemoglobin release. Buffer absorbance was subtracted from all data points.
Protection from infection assay
Viral infection inhibition assays were performed using an MTS reagent (Promega). 15,000 MDCK II cells were seeded the day before infection. […] Two hours before the readout, 20 µL MTS solution (Promega) was added to each well and put back to 37 °C for the remaining time. Finally, absorbance at 490 nm was measured by a plate reader (Fluostar optima, BMG) and data were normalized to maximum viral cytotoxicity. […]

Where [9] appears, read: 20 µM in PBS (10 mM, pH 7.4), volume distribution profile.

Values joined by “and” are separate entries in the source; they are usually repeats but may differ in a detail not shown here. Identical values can stand only once. Ends that are not written are not given here.

For orientation: IC50 means the concentration that inhibits the measured activity by half. Take “C17H35CO-XXXXXXXXXXXXXXX-CONH2 [C18-PeB^GF, stearylated HA antibody derived antiviral peptide]”: in data set [1], the “KiHAI (Aichi H3N2)” value is recorded as 1.2 ± 0.0 µM and the “decrease of the KiHAI value compared with unmodified PeB^GF, Aichi H3N2” value is on record as 20 fold. Moreover, in data set [2], the “KiHAI (Rostock H7N1)” value is 2.8 µM and 2.8 ± 0.9 µM; the “decrease of the KiHAI value compared with unmodified PeB^GF, H7N1” value is reported as 10 fold. The substance also gave a KiA with human erythrocytes [3] of 100.0 ± 0.0 µM. Besides, in data set [4], the “enhancement of inhibitory potential in infection inhibition compared with unmodified PeB^GF, Aichi H3N2” value is listed as “approx. 5 fold”. The IC50 in [4] (read-out: IC50, infection inhibition of MDCK cells by Aichi H3N2) came out at 5.9 µM. In addition, the “enhancement of inhibition in infection inhibition compared with unmodified PeB^GF, Rostock H7N1” value in [5] is “did not increase”. Moreover, the 50% inhibitory concentration (IC50) in data set [5] (read-out: IC50, infection inhibition of MDCK cells by Rostock H7N1) stood at 84 µM. Besides, the “PDI (DLS)” value in data set [6] (20 µM in PBS (10 mM, pH 7.4)) turned out to be 0.454. For the same substance, in data set [6] (setting [9]), the “share of bigger supramolecular structures (DLS)” value is on record as 10–15% and the “hydrodynamic diameter (DLS)” value is reported as 16.7 nm. In addition, in data set [6] (concentration of 100 µM), the “size of supramolecular aggregates (DLS)” value is greater than 1 µm. The “morphology of assemblies (TEM)” value in data set [7] is “fibrillar supramolecular arrangement being up to several hundred nanometers long”.
Consider RRKKAAVALLPAVLLALLAP-NH2 [EB], for which the “KiHAI (Aichi H3N2)” value in data set [1] is recorded as 1.6 ± 0.3 µM. In addition, the KiA in the data set on human erythrocytes [3] was determined as 8.6 ± 7.0 µM. In addition, the IC50 was 20 µM in the data set with Aichi H3N2 and 4.5 µM with Hongkong H5N1.
On to “C17H35CO-VMTRPLRA-CONH2 [C18-rs2s, reference compound]”, for which the “KiHAI (Aichi H3N2)” value in data set [1] is on record as “no effect”. Further, the KiA with human erythrocytes [3] is 4.1 ± 2.1 µM. The “PDI (DLS)” value in data set [6] (20 µM in PBS (10 mM, pH 7.4)) was 0.328. Further, the “hydrodynamic diameter (DLS)” value in data set [6] (setting [9]) worked out at 818.8 nm.
Consider “C17H35CO-ARLPRTMV-CONH2 [C18-s2s, stearylated sialic acid mimetic peptide (Matsubara et al. 2010)]”, for which, in [1], the “KiHAI (Aichi H3N2)” value worked out at 0.8 ± 0.5 µM. In addition, the KiA in the data set on human erythrocytes [3] stood at 7.0 ± 0.8 µM. The “volume size distribution (DLS), in words” value in data set [6] (20 µM in PBS (10 mM, pH 7.4)) was “multimodal”. Also, the hemolytic activity result in the data set with human erythrocytes [8] is listed as “extremely hemolytic”.

Source of the values: paper PMC4464269, “Potential of acylated peptides to target the influenza A virus” (Beilstein Journal of Organic Chemistry, 2015).
